The test system of one test is SIV. The test can be described thus: SIV infectivity assay in H9 cells, RT activity in supernatant. It counts as cell-based.
In test [1] the test system is HIV-1. As to conditions: H9 cells; for Day 7 RT HIV-1 / Day 10 RT HIV-1: 100 μM; for HIV-1 infection, result in words: summary of Experiments 1-5. The source says: (§1) In this example, the methods that were used to analyze the ability of various tripeptides to inhibit HIV-1, HIV-2, and SIV replication are disclosed. In Experiments 1 and 2, approximately 200,000 H9 cells were infected with HIV-1, HIV-2 or SIV at 25 TCID50 to test the inhibitory effect of the following synthesized tripeptides LKA-NH2, ILK-NH2, GPQ-NH2, GHK-NH2, GKG-NH2, ACQ-NH2, CQG-NH2, ARV-NH2, KAR-NH2, HKA-NH2, GAT-NH2, KAL-NH2, and GPG-NH2. Accordingly, the H9 cells were resuspended with or without the different peptides (approximately 100 μM) in 1 ml of RPMI 1640 medium supplemented with 10% (v/v) heat-inactivated fetal bovine serum (FBS), penicillin (100 u/ml), and streptomycin (100 u/ml), all available through GIBCO, and Polybrene (2 μg/ml), available through Sigma. Thereafter, viruses were added at 25 TCID50 in a volume of 20-30μl. Cells were incubated with virus at 37° C. for 1 hr then pelleted at 170×g for 7 minutes. The cells were then washed three times in RPMI medium without peptides at room temperature and pelleted at 170×g for 7 minutes, as above. After the final wash, the cells were resuspended in RPMI culture medium containing the peptides in a 24-well plate (Costar corporation) and were kept at 37° C. in 5% CO2 with humidity.
(§2) Culture supernatants were collected and analyzed when the medium was changed at 4, 7, 10, and 14 days post infection. To monitor the replication of virus, reverse transcriptase (RT) activity in the supernatants was assayed using a commercially available Lenti-RT activity kit. (Cavidi Tech, Uppsala, Sweden). The amount of RT was determined with the aid of a regression line of standards. The results are presented as absorbance values (OD) and higher absorbance indicates a higher protein concentration and greater viral infection. Syncytium formation was also monitored by microscopic examination.
In Experiment 3, (Table 4), approximately 200,000 H9 cells were infected with HIV-1, HIV-2 or SIV at 25 TCID50 to test the inhibitory effect of different concentrations of peptides GPG-NH2, GKG-NH2 and CQG-NH2 and combinations of these peptides (the indicated concentration corresponds to the concentration of each tripeptide). As above, H9 cells were resuspended with or without the different peptides at varying concentrations in 1 ml of RPMI 1640 medium supplemented with 10% (v/v) heat-inactivated fetal bovine serum (FBS), penicillin (100 u/ml), and streptomycin (100 u/ml), and Polybrene (2 μg/ml). Thereafter, viruses were added at 25 TCID50 in a volume of 20-30 μl. Cells were incubated with the indicated virus at 37° C. for 1 hr then pelleted at 170×g for 7 minutes. The cells were then washed three times in RPMI medium without peptides at room temperature and pelleted at 170×g for 7 minutes, as above. After the final wash, the cells were resuspended in RPMI culture medium containing the peptides in a 24-well plate (Costar corporation) and kept at 37° C. in 5% CO2 with humidity.
Culture supernatants were collected when the medium was changed at 4, 7, and 11 days post infection. As above, the replication of each virus was monitored by detecting reverse transcriptase (RT) activity in the supernatants using the Lenti-RT activity kit. (Cavidi Tech). The amount of RT was determined with the aid of a regression line of standards. The results are presented as absorbance values (OD) and higher absorbance indicates a higher protein concentration and greater viral infection.
In Experiment 4, (Table 5) approximately 200,000 H9 cells were infected with HIV-1 at 25 TCID50 to test the inhibitory effect of different concentrations of peptides GPG-NH2, GKG-NH2 and CQG-NH2 and combinations of these peptides (the indicated concentration corresponds to the total concentration of tripeptide).

In the next test the test system is HIV-2. The test can be described thus: HIV-2 infectivity assay in H9 cells, RT activity in supernatant. The test is classed as cell-based.
Test [2] deals with HIV-1. As to conditions: H9 cells; for HIV-1 Syncytia: 100 μM.
Text: as §1, §2

Where two headings read alike, the source gives them in different places. Marks after values point to notes of the source that are not given here.

Gly-Pro-Gln [GPQ-NH2]: the “Day 7 RT SIV” value in the test with SIV (Experiment 1, 100 μM) is on record as 1.542 OD; in the test with SIV (Experiment 2, 100 μM) it was 0.574 OD. In addition, the “Day 10 RT SIV” value came out at 2.176 OD with SIV (Experiment 1, 100 μM) and 2.319 OD with SIV (Experiment 2, 100 μM). In addition, the “Day 7 RT HIV-1” value was determined as 0.204 OD with HIV-1 [1] (Experiment 1) and 0.884 OD in the test on HIV-1 [1] (Experiment 2). Further, the figures for the “Day 10 RT HIV-1” value in the test on HIV-1 [1] (Experiment 1) and in the test on HIV-1 [1] (Experiment 2) were 1.965 OD and 2.848 OD, respectively. Further, in the test with HIV-1 [1], the “HIV-1 infection, result in words” value was “did not prevent HIV infection”. Besides, the “Day 7 RT HIV-2” value in the test with HIV-2 (Experiment 1, 100 μM) is listed as 3.692 OD; in the test with HIV-2 (Experiment 2, 100 μM), 1.511 OD. Also, the “Day 10 RT HIV-2” value in the test with HIV-2 (Experiment 1, 100 μM) turned out to be 2.734 OD; with HIV-2 (Experiment 2, 100 μM), 2.382 OD. In addition, the “HIV-1 Syncytia” value in the test with HIV-1 [2] (Experiment 1) and in the test with HIV-1 [2] (Experiment 2) was “pos” in each case. In the test with HIV-1 [2] (summary of Experiments 1-2), the “HIV-1 syncytia formation, result in words” value was “failed to prevent infection and HIV-1 syncytia formation”.
With His-Lys-Ala [HKA-NH2], the “Day 7 RT SIV” value in the test on SIV (Experiment 1, 100 μM) was determined as 0.416 OD; with SIV (Experiment 2, 100 μM), 0.455 OD. Besides, the “Day 10 RT SIV” value with SIV (Experiment 1, 100 μM) was 2.520 OD; in the test with SIV (Experiment 2, 100 μM) it was 2.623 OD. Also, the “Day 7 RT HIV-1” value in the test on HIV-1 [1] (Experiment 1) was found to be 0.312 OD; in the test on HIV-1 [1] (Experiment 2), 1.081 OD. For the same substance, the results for the “Day 10 RT HIV-1” value with HIV-1 [1] (Experiment 1) and in the test on HIV-1 [1] (Experiment 2) were 2.546 OD and 2.794 OD, respectively. Moreover, in the test with HIV-1 [1], the “HIV-1 infection, result in words” value is listed as “did not prevent HIV infection”. Further, the “Day 7 RT HIV-2” value was found to be 3.408 OD in the test with HIV-2 (Experiment 1, 100 μM) and 1.678 OD in the test on HIV-2 (Experiment 2, 100 μM). Also, the “Day 10 RT HIV-2” value in the test on HIV-2 (Experiment 1, 100 μM) worked out at 2.669 OD; in the test with HIV-2 (Experiment 2, 100 μM) it was 2.560 OD. Also, the “HIV-1 Syncytia” value with HIV-1 [2] (Experiment 1) and in the test on HIV-1 [2] (Experiment 2) was “pos” in each case.
In the case of Iso-Leu-Lys [ILK-NH2], the “Day 7 RT SIV” value came to 3.180 OD with SIV (Experiment 1, 100 μM) and 0.515 OD in the test on SIV (Experiment 2, 100 μM). Moreover, the “Day 10 RT SIV” value worked out at 2.255 OD with SIV (Experiment 1, 100 μM) and 2.632 OD in the test on SIV (Experiment 2, 100 μM). Besides, the “Day 7 RT HIV-1” value with HIV-1 [1] (Experiment 1) worked out at 0.365 OD; in the test with HIV-1 [1] (Experiment 2), 0.581 OD. The “Day 10 RT HIV-1” value in the test with HIV-1 [1] (Experiment 1) was 2.033 OD; with HIV-1 [1] (Experiment 2), 2.950 OD. In addition, the “Day 7 RT HIV-2” value is 3.467 OD in the test with HIV-2 (Experiment 1, 100 μM) and 1.692 OD with HIV-2 (Experiment 2, 100 μM). The “Day 10 RT HIV-2” value in the test on HIV-2 (Experiment 1, 100 μM) came out at 2.791 OD; in the test with HIV-2 (Experiment 2, 100 μM), 2.557 OD. In addition, the “HIV-1 Syncytia” value in the test with HIV-1 [2] (Experiment 1) and in the test with HIV-1 [2] (Experiment 2) was “pos” each time.
For Leu-Lys-Ala [LKA-NH2], the “Day 7 RT SIV” value in the test with SIV (Experiment 1, 100 μM) was determined as 3.577 OD; in the test on SIV (Experiment 2, 100 μM) it was 0.724 OD. For the same substance, the “Day 10 RT SIV” value with SIV (Experiment 1, 100 μM) was 2.452 OD; in the test on SIV (Experiment 2, 100 μM) it was 2.797 OD. For the same substance, the “Day 7 RT HIV-1” value is 0.568* OD with HIV-1 [1] (Experiment 1) and 0.894* OD with HIV-1 [1] (Experiment 2). Also, the “Day 10 RT HIV-1” value with HIV-1 [1] (Experiment 1) amounted to 2.429 OD; with HIV-1 [1] (Experiment 2) it was 2.989 OD. Also, the “HIV-1 infection, result in words” value with HIV-1 [1] is “did not prevent HIV infection”. The “Day 7 RT HIV-2” value stood at 3.649 OD with HIV-2 (Experiment 1, 100 μM) and 1.689 OD with HIV-2 (Experiment 2, 100 μM). The “Day 10 RT HIV-2” value is on record as 2.769 OD with HIV-2 (Experiment 1, 100 μM) and 2.637 OD in the test on HIV-2 (Experiment 2, 100 μM). The “HIV-1 Syncytia” value in the test on HIV-1 [2] (Experiment 1) and in the test with HIV-1 [2] (Experiment 2) was “pos” each time.
Lys-Ala-Arg [KAR-NH2]: the “Day 7 RT SIV” value in the test with SIV (Experiment 1, 100 μM) was 0.266 OD; in the test with SIV (Experiment 2, 100 μM), 1.034 OD. In addition, the “Day 10 RT SIV” value in the test with SIV (Experiment 1, 100 μM) worked out at 1.722 OD; with SIV (Experiment 2, 100 μM), 2.672 OD. Further, the “Day 7 RT HIV-1” value in the test with HIV-1 [1] (Experiment 1) was 0.380 OD; with HIV-1 [1] (Experiment 2), 0.753 OD. Further, the “Day 10 RT HIV-1” value in the test on HIV-1 [1] (Experiment 1) is on record as 2.779 OD; in the test with HIV-1 [1] (Experiment 2), 2.928 OD. The “Day 7 RT HIV-2” value turned out to be 3.419 OD in the test with HIV-2 (Experiment 1, 100 μM) and 1.904 OD in the test with HIV-2 (Experiment 2, 100 μM). Also, the “Day 10 RT HIV-2” value with HIV-2 (Experiment 1, 100 μM) was 2.640 OD; in the test on HIV-2 (Experiment 2, 100 μM), 2.742 OD. Moreover, the “HIV-1 Syncytia” value in the test with HIV-1 [2] (Experiment 1) and with HIV-1 [2] (Experiment 2) was “pos” throughout.
